Experimental data taken from patent US5543312A, “Pastuerella haemolytica glycoprotease gene and the purified enzyme” (priority 1991, dated 1996).

Key:
[1] = target: P. haemolytica A1 glycoprotease (Mannheimia haemolytica, UniProt P36175); experiment: biochemical; settings: for Restoration of protease activity by addition of divalent metal ion: after EDTA treatment and dialysis of the enzyme; for Increase of activity by addition of divalent metal ion: native enzyme; for Inhibition of the glycoprotease by anions and acidic amino acids: millimolar concentrations
P. haemolytica A1 glycoprotease, sequence (P36175 whole entry): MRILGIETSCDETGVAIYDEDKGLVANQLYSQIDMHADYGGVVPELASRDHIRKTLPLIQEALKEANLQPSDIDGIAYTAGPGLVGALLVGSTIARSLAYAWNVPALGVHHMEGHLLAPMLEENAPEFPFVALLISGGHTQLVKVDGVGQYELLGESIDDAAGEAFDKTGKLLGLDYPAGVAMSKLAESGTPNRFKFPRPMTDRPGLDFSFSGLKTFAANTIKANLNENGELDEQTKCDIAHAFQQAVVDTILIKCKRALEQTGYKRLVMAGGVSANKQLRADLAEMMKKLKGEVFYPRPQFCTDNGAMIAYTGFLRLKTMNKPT

[2] = tested on: P. haemolytica glycoprotease; experiment: Cleavage of cell surface antigens of surface-125I-iodinated KG1a cells, immunoprecipitation and SDS-PAGE; assay type: cell-based
From the text: In our previous work, we have concentrated on the cleavage of human erythrocyte glycophorin A by the P. haemolytica glycoprotease Udoh et al. 1986. Univ. of Guelph; Abdullah et al. 1988. Proc. Canad. Fed. Biol. Socs.; Abdullah et al. 1990. Biochem. Soc. Trans. This substrate is well-characterized erythrocyte surface O-sialoglycoprotein and is readily available for biochemical analysis. However, it is clear that the physiological targets of this enzyme are not erthrocyte antigens but are probably O-sialoglycoproteins on the surfaces of leukocytes or endothelial cells. SDS-PAGE analysis of immunoprecipitations performed with specific monoclonal antibodies on lysates of surface-^125 I-iodinated KG1a cells, a primitive myeloid/T-lymphois stem cell line Koeffler et al. 1977. Science 200, have shown that the O-sialoglycoprotein cell surface antigens CD34 Civin et al. 1989. Leucocyte Typing IV, Oxford Univ. Press. CD43/leucosialin Killeen et al. 1987. EMBO J.; Pallant et al. 1989. PNAS, CD44/lyaluronic acid receptor Stamenkovic et al. 1989. Cell; Aruffo et al. 1990. Cell and CD45/leucocyte common antigen Thomas et al. 1989. Annu. REv. Immunol.; Pulido et al. 1989. J. Immunol. are all cleaved by the glycoprotease. Although the glycoprotease-sensitive structures contain some N-linked glycans they are all extensively glycosylated with O-linked carbohydrates. […]

[3] = target: P. haemolytica A1 protease (Mannheimia haemolytica, UniProt P36175); assay type: biochemical; settings: SDS-PAGE and Coomassie blue staining
P. haemolytica A1 protease, sequence (P36175 whole entry, looked up): as the sequence (P36175 whole entry) above

[4] = pH 7.4, read-out: Activity (% of enzyme activity in the absence of any inhibitor)

c1cnc2c(c1)ccc1cccnc12 [1,10-phenanthroline]
Inhibition of the protease by prolonged treatment ([1]; prolonged treatment (24 h)): inhibited

O=C1O[C@H]([C@@H](O)CO)C(O)=C1O [Ascorbate]
inhibition at 11400 µM [1, 4]: 60%

[Ca+2] [Ca^2+]
Restoration of protease activity by addition of divalent metal ion [1]: failed to restore
Increase of activity by addition of divalent metal ion [1]: failed to increase

[Fe+2] [Fe^2+]
Restoration of protease activity by addition of divalent metal ion [1]: failed to restore
Increase of activity by addition of divalent metal ion [1]: failed to increase

[Mg+2] [Mg^2+]
Restoration of protease activity by addition of divalent metal ion [1]: failed to restore
Increase of activity by addition of divalent metal ion [1]: failed to increase

CCN1C(=O)C=CC1=O [N-ethylmaleimide]
Inhibition of glycoprotease by conventional protease inhibitors [1]: No inhibition

CC(C)C[C@H](NP(=O)(O)O[C@H]1O[C@@H](C)[C@H](O)[C@@H](O)[C@H]1O)C(=O)N[C@@H](Cc1c[nH]c2ccccc12)C(=O)O [Phosphoramidon, N-(β-L-rhamnopyranosyl-oxyhydroxyphosphinyl)-L-leucyl-L-tryptophan]
Inhibition of the glycoprotease (in words) ([1]; concentration not given): without significant effect
inhibition at 900 µM [1, 4]: 95%

[Zn+2] [Zn^2+]
Restoration of protease activity by addition of divalent metal ion [1]: failed to restore
Increase of activity by addition of divalent metal ion [1]: failed to increase

N[C@@H](CC(=O)O)C(=O)O [aspartate]
Inhibition of the glycoprotease by anions and acidic amino acids [1]: Some inhibitions

N[C@@H](CCC(=O)O)C(=O)O [glutamate]
Inhibition of the glycoprotease by anions and acidic amino acids [1]: Some inhibitions

O=C(O)c1cc[c]([Hg][Cl])cc1 [p-chloromercuribenzoate]
Inhibition of glycoprotease by conventional protease inhibitors [1]: No inhibition

O=C(O)c1cc[c]([Hg+])cc1.[OH-] [p-hydroxymercuribenzoate]
Inhibition of glycoprotease by conventional protease inhibitors [1]: No inhibition

O=S(=O)(F)Cc1ccccc1 [phenylmethanesulfonyl-fluoride]
Inhibition of glycoprotease by conventional protease inhibitors [1]: No inhibition

Cc1ccc(S(=O)(=O)NC(CCCCN)C(=O)CCl)cc1 (stereo not shown) [tosyl-lysl chloromethylketone]
Inhibition of glycoprotease by conventional protease inhibitors [1]: No inhibition

Cc1ccc(S(=O)(=O)NC(Cc2ccccc2)C(=O)CCl)cc1 (stereo not shown) [tosylphenylalanyl chloromethylketone]
Inhibition of glycoprotease by conventional protease inhibitors [1]: No inhibition

CD44/lyaluronic acid receptor: O-sialoglycoprotein cell surface antigen, hyaluronate receptor
Cleavage of cell surface antigen by the glycoprotease [2]: cleaved

CD71/transferrin receptor: N-linked glycoprotein which lacks O-sialo-residues
Cleavage of cell surface antigen by the glycoprotease [2]: resistant

bovine insulin chain A
Hydrolysis of protein by active enzyme fractions [3]: did not hydrolyze

cytochrome c
Hydrolysis of protein by active enzyme fractions [3]: did not hydrolyze

insulin chain B
Hydrolysis of protein by active enzyme fractions [3]: did not hydrolyze
